Among the data in ChEMBL document CHEMBL2074021, “Nuclear receptor response elements mediate induction of intestinal MDR1 by rifampin” (J Biol Chem, 2001) are Activity values, retold here.

The data set has as its target ATP-dependent translocase ABCB1 (Homo sapiens, UniProt P08183). Briefly: TP_TRANSPORTER: Northern blot from LS174T cell. Format: functional, cell-based.

Chain of ATP-dependent translocase ABCB1 (P08183 whole entry): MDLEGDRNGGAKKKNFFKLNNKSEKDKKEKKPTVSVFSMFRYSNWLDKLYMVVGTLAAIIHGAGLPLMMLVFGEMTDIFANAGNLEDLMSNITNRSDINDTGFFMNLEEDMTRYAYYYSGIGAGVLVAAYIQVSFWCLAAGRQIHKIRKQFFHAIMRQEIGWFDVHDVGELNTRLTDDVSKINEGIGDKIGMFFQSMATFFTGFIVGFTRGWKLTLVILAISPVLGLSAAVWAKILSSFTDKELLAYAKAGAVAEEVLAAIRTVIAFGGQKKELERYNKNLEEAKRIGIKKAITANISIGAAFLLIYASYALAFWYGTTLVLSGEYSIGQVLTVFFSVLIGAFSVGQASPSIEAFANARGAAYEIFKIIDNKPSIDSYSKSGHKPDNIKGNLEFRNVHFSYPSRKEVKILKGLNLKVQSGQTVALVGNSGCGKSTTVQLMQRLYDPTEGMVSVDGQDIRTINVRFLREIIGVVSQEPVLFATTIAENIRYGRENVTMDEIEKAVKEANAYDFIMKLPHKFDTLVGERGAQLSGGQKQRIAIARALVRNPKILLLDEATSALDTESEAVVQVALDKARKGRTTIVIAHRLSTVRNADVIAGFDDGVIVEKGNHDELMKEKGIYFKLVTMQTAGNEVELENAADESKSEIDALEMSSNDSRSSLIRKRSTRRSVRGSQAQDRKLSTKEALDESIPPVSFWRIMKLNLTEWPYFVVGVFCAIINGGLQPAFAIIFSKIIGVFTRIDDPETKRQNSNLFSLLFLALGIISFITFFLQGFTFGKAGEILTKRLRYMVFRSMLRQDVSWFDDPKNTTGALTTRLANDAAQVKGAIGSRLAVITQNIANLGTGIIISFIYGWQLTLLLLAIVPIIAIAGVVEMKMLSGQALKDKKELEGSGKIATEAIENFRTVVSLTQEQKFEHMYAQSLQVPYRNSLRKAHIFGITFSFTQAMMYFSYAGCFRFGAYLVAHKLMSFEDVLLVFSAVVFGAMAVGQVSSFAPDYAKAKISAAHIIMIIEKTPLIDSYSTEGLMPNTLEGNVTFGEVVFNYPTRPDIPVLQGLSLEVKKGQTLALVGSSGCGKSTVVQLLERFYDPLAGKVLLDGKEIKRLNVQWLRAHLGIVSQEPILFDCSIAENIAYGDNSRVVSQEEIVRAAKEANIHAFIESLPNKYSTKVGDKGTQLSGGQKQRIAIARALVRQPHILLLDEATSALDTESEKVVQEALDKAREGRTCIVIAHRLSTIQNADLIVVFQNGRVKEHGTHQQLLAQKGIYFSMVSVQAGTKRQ

On to `CC(=O)[C@H]1CC[C@H]2[C@@H]3CC[C@@H]4CC(=O)CC[C@]4(C)[C@H]3CC[C@]12C`, for which the Activity entry is “inducer [+]”. In the case of `NC(=O)N1c2ccccc2C=Cc2ccccc21` [CARBAMAZEPINE] it was “inducer [+]”; in that of `Clc1ccccc1C(c1ccccc1)(c1ccccc1)n1ccnc1` [CLOTRIMAZOLE], “inducer [+]”; in that of `C[C@]12C[C@H](O)[C@H]3[C@@H](CCC4=CC(=O)CC[C@@]43C)[C@@H]1CC[C@@H]2C(=O)CO` [CORTICOSTERONE], “inducer [+]”.

On to `C[C@@H]1C[C@H]2[C@@H]3CCC4=CC(=O)C=C[C@]4(C)[C@@]3(F)[C@@H](O)C[C@]2(C)[C@@]1(O)C(=O)CO` [DEXAMETHASONE], for which the Activity result is “inducer [+]”.

Regarding `CC#C[C@]1(O)CC[C@H]2[C@@H]3CCC4=CC(=O)CCC4=C3[C@@H](c3ccc(N(C)C)cc3)C[C@@]21C` [MIFEPRISTONE], the Activity result is “inducer [+]”. In the case of `COC(=O)C1=C(C)NC(C)=C(C(=O)OC)C1c1ccccc1[N+](=O)[O-]` [NIFEDIPINE], the Activity entry is “inducer [+]”. With `CC(=O)[C@H]1[C@H](C#N)C[C@H]2[C@@H]3CC=C4C[C@@H](O)CC[C@]4(C)[C@H]3CC[C@@]21C` [PREGNENOLONE CARBONITRILE], the Activity entry was “inducer [+]”. For `COC(=O)[C@H]1[C@H]2C[C@@H]3c4[nH]c5cc(OC)ccc5c4CCN3C[C@H]2C[C@@H](OC(=O)c2cc(OC)c(OC)c(OC)c2)[C@@H]1OC` [RESERPINE] the value was “inducer [+]”. In the case of `CO[C@H]1/C=C/O[C@@]2(C)Oc3c(C)c(O)c4c(O)c(c(/C=N/N5CCN(C)CC5)c(O)c4c3C2=O)NC(=O)/C(C)=C\C=C\[C@H](C)[C@H](O)[C@@H](C)[C@@H](O)[C@@H](C)[C@H](OC(C)=O)[C@@H]1C` [RIFAMPIN] it was “inducer [+]”.
